{"source": "patent US20110236406A1", "about": "“IMMUNOGENIC COMPOSITIONS COMPRISING HMGB1 POLYPEPTIDES” (MedImmune, LLC, priority 2004, published 2011)", "key": {"[1]": {"tested_on": "B box-induced DC maturation", "assay": "Signalling inhibitors on B box-induced CD83 upregulation and IL-6 secretion in DCs", "assay_type": "cell-based, human", "conditions": "30 min preincubation, then rB box 100 μg/ml, 48 h; SB203580 5 or 20 μM, PD98059 and TPCK 20 or 80 μM", "method": "FIG. 6. B box causes […] upregulation and IL-6 secretion via a p38 dependent pathway. Immature d7 DCs were preincubated for 30 min with (i) DMSO, (ii) PD98059 at 20 (P20) or 80 (P80) μM, (iii) SB203580 at 5 (S5) or 20 (S20) μM, (iv) TPCK at 20 (T20) or 80 (T80) μM and then treated with rB box (100 μg/ml), or cultured with DMSO in the absence of B box (medium). 48 h after activation the DCs were assayed for the surface expression of CD83 by FACS and IL-6 secretion was measured by ELISA. The results shown are mean+/−SEM of three independent experiments using DCs generated from different donors.\nThe p38 MAPK-specific inhibitor, SB203580, a pyridinyl imidazole compound, the MEK inhibitor PD98059, and N-tosyl-L-phenylalanine chloromethyl ketone (TPCK) were purchased from Sigma. Because these required solubilization in DMSO, DMSO was used as a negative control.\nTo obtain insight into the roles of ERK and p38 MAPK pathways in B box-induced DC maturation, we used their specific inhibitors, PD98059 and SB203580, respectively. To analyze the role of NF-κB we used TPCK, a serine protease inhibitor that blocks nuclear translocation of Rel/NF-κB by preventing IκB degradation."}, "murine BM-DCs [2]": {"tested_on": "murine BM-DCs", "assay": "Phenotypic maturation of murine BM-DCs (surface markers, FACS)", "assay_type": "cell-based, mouse", "conditions": "CD11c+ gated BM-DCs, 48 h; peptides 200 μg/ml", "method": "(§1) Bone marrow-derived DCs (BM-DC) were generated using modifications of the original method described by Inaba et al (42). In brief, bone marrow suspensions were incubated with red cell lysis buffer (PUREGENE™ RBC Lysis Solution, Gentra Systems, Minneapolis, Minn.) to remove red blood cells. After washing in media, lymphocytes and Ia-positive cells were killed with a cocktail of mAbs and rabbit complement for 60 min at 37° C. The mAbs were GK1.5 anti-CD4, TIB211 anti-CD8, TIB 120 anti-Ia, and TM 146 anti B220 (The Abs were kindly provided by Dr. Ralph Steinman). The cells were subsequently cultured in media containing 5% FCS and 10 ng/ml recombinant mouse GM-CSF (R&D Systems; Minneapolis, Minn.) for 7 days. For some experiments the cells were further purified at day 7 using CD11c^+-microbeads (Miltenyi Biotech., Auburn, Calif.) according to the manufacturer's instructions.\n(§2) At day 7 of culture, immature DCs were either left untreated, or were stimulated with indicated doses of HMGB1-Bx, HMGB1 peptides, or LPS (E. coli serotype 026:B6, Sigma). In all experiments, DCs were analyzed 48 h after stimulation.\n1×10^4 DCs were reacted for at least 20 min at 4° C. in 100 μl of PBS/5% FCS/0.1% sodium azide (staining buffer) with fluorescein isothiocyanate (FITC)-conjugated IgG mAb specific for CD86, CD40 and MHC-II (eBioscience). Cells were then washed 4 times with staining buffer, fixed in 10% formaldehyde in PBS (pH 7.2-7.4) and examined by flow cytometry using a FACScan (BD). In all experiments, isotype controls were included using FITC-conjugated irrelevant mAb of the same Ig class."}, "allogeneic T cells": {"tested_on": "allogeneic T cells", "assay": "Mixed leukocyte reaction, stimulated murine BM-DCs with allogeneic T cells", "assay_type": "cell-based, mouse", "conditions": "BM-DCs from C57/BL6 mice; HMGB1-Bx 50 μg/ml, peptides 200 μg/ml, 48 h; 5-day co-culture", "method": "T cells were isolated by negative selection using the mouse SpinSep antibody cocktail from StemCell Technologies (Vancouver, Calif.) according to the manufacturer's instructions. The cell purity of the isolated T cells was routinely ˜99% pure.\nTo assess levels of T cell activation and proliferation, cells were plated at 10^5 cells per well in a round-bottomed 96-well tray at DC:T cell ratios of 1:120 for 5 days in medium described above. The microcultures were pulsed with (^3H)-thymidine (1 μCi/well) for the final 8 h of culture. Cell cultures were harvested onto glass fiber filters with an automated multiple sample harvester and the amount of isotope incorporation was determined by liquid scintillation β-emission. Responses are reported as mean cpm of thymidine incorporation by triplicate cultures (+/−SEM)."}, "[3]": {"tested_on": "human monocyte-derived DCs", "assay": "Cytokine and chemokine secretion by human immature monocyte-derived DCs (ELISA)", "assay_type": "cell-based", "parameters": "key to TNFα / IL-18 / IL-8 / IL-10 / IL-6 / IL-12: + indicates increase; − indicates no change compared to medium", "method": "(§3) PBMCs were isolated from the blood of normal volunteers (Long Island Blood Services, Melville, N.Y.) over a Ficoll-Hypaque (Amersham Biosciences, Uppsala, Sweden) density gradient. CD14^+ monocytes were isolated from PBMCs by positive selection using anti-CD14 beads (Miltenyi Biotech., Auburn, Calif.) following the manufacturer's instructions. To generate DCs, CD14^+ cells were cultured in RPMI 1640 medium supplemented with 2 mM L-glutamine (GIBCO-BRL Life Technologies; Grand Island, N.Y.), 50 μM 2-mercaptoethanol (Sigma, St. Louis, Mo.), 10 mM HEPES (GIBCO-BRL), penicillin (100 U/ml)-streptomycin (100 μg/ml) (GIBCO-BRL), and 5% human AB serum (Gemini Bio-Products, Woodland, Calif.). Cultures were maintained for 7 days in 6-well trays (3×10^6 cells/well) supplemented with 1000 U GM-CSF per ml (Immunex, Seattle, Wash.) and 200 U IL-4 per ml (R&D Systems; Minneapolis, Minn.) at days 0, 2, 4 and 6.\nAt day 7 of culture, immature DCs were either left untreated (“immature”, IM), or were stimulated with indicated doses of (i) LPS (E. coli serotype 026:B6, Sigma), (ii) 500 ng/ml of trimeric CD40L (Alexis Biochemicals; San Diego, Calif.), (iii) a cocktail of cytokines (CyC) consisting of IL-6 at 1000 U/ml, TNFα at 10 ng/ml, IL-1β at 10 ng/ml (all from R&D Systems) and prostaglandin E2 (PGE-2) at 1 μg/ml (Sigma), or with (v) non-methylated CpG oligonucleotides (5′ […] 3′) at 30 μg/ml. The sequence of this oligonucleotide is known to induce DC maturation (4), except that it contains an unmodified phosphodiester backbone. In all experiments, DCs were analyzed 48 h after stimulation. All experiments using the rB box were performed in the presence of polymyxin B sufficient to neutralize greater than 10-fold more LPS than present in rB box preparations.\n(§4) 48 h post activation, the production of cytokines and chemokines in cell culture supernatants was measured by ELISA (Pierce Boston Technology Center, SearchLight™ Proteome Arrays Multiplex Sample Testing Services, Woburn, Mass.).\nas §3, with “DCs, CD 14^+” for “DCs, CD14^+”\nas §2"}, "murine BM-DCs [4]": {"tested_on": "murine BM-DCs", "assay": "Cytokine and chemokine secretion by murine bone marrow-derived DCs (ELISA)", "assay_type": "cell-based, mouse", "parameters": "key to TNFα / IL-18 / IL-8 / IL-10 / IL-2 / IL-1β / IL-5 / IL-6 / IL-12: + indicates increase; − indicates no change compared to medium", "method": "as §1, §2, §4"}, "[5]": {"conditions": "Example 2, peptides 200 μg/ml, HMGB1-Bx 50 μg/ml, polymyxin B, 48 h, FIG. 8C"}, "[6]": {"conditions": "HUMAN DC, ELISA 48 h after exposure, compared to medium"}, "[7]": {"conditions": "Murine DC, ELISA 48 h after exposure, compared to medium"}, "[8]": {"conditions": "peptides 200 μg/ml, HMGB1-Bx 50 μg/ml, polymyxin B, 48 h"}}, "note": "No end group written: not given here. *: point of attachment. Biotin = O=C1N[C@H]2[C@H](CS[C@H]2CCCCC(=O)*)N1", "data": [{"compound": "C[S+]([O-])c1ccc(-c2nc(-c3ccncc3)c(-c3ccc(F)cc3)[nH]2)cc1", "note": "(stereo not drawn) [SB203580]", "values": [{"measurement": "B box induced secretion of IL-6", "setting": "[1]", "result": "downregulated"}, {"measurement": "B box-induced upregulation of CD83", "setting": "[1]", "result": "completely abrogated"}]}, {"compound": "CSEYRPKIKGEHPGLSIG [Hp-106] (Biotin-CSEYRPKIKGEHPGLSIG; listed as Homo sapiens)", "values": [{"measurement": "surface expression of maturation markers", "setting": "murine BM-DCs [2]", "result": "did not significantly enhance"}, {"measurement": "T cell stimulatory activity of exposed BM-DCs in mixed lymphocyte reaction", "setting": "allogeneic T cells", "result": "activated resting allogeneic T cells"}, {"measurement": "IL-6 release", "setting": "[3]; Example 1, synthetic B box peptides at 200 μg/ml, FIGS. 3D, E", "result": "specifically stimulated IL-6 release"}, {"measurement": "secretion of IL-6", "setting": "[3]; Example 2, peptides 200 μg/ml, HMGB1-Bx 50 μg/ml, polymyxin B, 48 h, FIG. 8A, 8B", "result": "induced secretion of IL-6"}, {"measurement": "secretion of IL-8", "setting": "[3]; [5]", "result": "not"}, {"measurement": "secretion of IL-12 (p70)", "setting": "[3]; [5]", "result": "increased secretion"}, {"measurement": "secretion of IL-18", "setting": "[3]; [5]", "result": "increased secretion"}, {"measurement": "secretion of TNF-α", "setting": "[3]; [5]", "result": "increased secretion"}, {"measurement": "IL-6", "setting": "[3]; [6]", "result": "+"}, {"measurement": "IL-8", "setting": "[3]; [6]", "result": "−"}, {"measurement": "IL-10", "setting": "[3]; [6]", "result": "−"}, {"measurement": "IL-12", "setting": "[3]; [6]", "result": "+"}, {"measurement": "IL-18", "setting": "[3]; [6]", "result": "+"}, {"measurement": "TNFα", "setting": "[3]; [6]", "result": "+"}, {"measurement": "IL-1β", "setting": "murine BM-DCs [4]; [7]", "result": "+"}, {"measurement": "IL-2", "setting": "murine BM-DCs [4]; [7]", "result": "+"}, {"measurement": "IL-5", "setting": "murine BM-DCs [4]; [7]", "result": "+"}, {"measurement": "IL-6", "setting": "murine BM-DCs [4]; [7]", "result": "−"}, {"measurement": "IL-8", "setting": "murine BM-DCs [4]; [7]", "result": "+"}, {"measurement": "IL-10", "setting": "murine BM-DCs [4]; [7]", "result": "−"}, {"measurement": "IL-12", "setting": "murine BM-DCs [4]; [7]", "result": "+"}, {"measurement": "IL-18", "setting": "murine BM-DCs [4]; [7]", "result": "+"}, {"measurement": "TNFα", "setting": "murine BM-DCs [4]; [7]", "result": "+"}, {"measurement": "activation of murine BM-DCs", "setting": "murine BM-DCs [4]; peptides 200 μg/ml, 48 h", "result": "activated"}, {"measurement": "secretion of IL-2", "setting": "murine BM-DCs [4]; [8]", "result": "enhanced secretion"}, {"measurement": "secretion of IL-5", "setting": "murine BM-DCs [4]; [8]", "result": "enhanced secretion"}, {"measurement": "secretion of IL-8", "setting": "murine BM-DCs [4]; [8]", "result": "enhanced secretion"}, {"measurement": "secretion of IL-12 (p70)", "setting": "murine BM-DCs [4]; [8]", "result": "enhanced secretion"}, {"measurement": "secretion of IL-18", "setting": "murine BM-DCs [4]; [8]", "result": "enhanced secretion"}, {"measurement": "secretion of TNF-α", "setting": "murine BM-DCs [4]; [8]", "result": "enhanced secretion"}, {"measurement": "secretion of IL-10", "setting": "murine BM-DCs [4]; peptides 200 μg/ml, polymyxin B, 48 h", "result": "enhanced secretion"}]}]}
